According to US12187728B2 (Raze Therapeutics, Inc., priority 2015, dated 2025):

Target: T1, Human MTHFD2 (Homo sapiens, UniProt P13995)
T1 construct: residues 36-350 in Uniport ID P13995; His6 (N); made in house; host or cells: E. coli
T1 sequence (P13995 36-350): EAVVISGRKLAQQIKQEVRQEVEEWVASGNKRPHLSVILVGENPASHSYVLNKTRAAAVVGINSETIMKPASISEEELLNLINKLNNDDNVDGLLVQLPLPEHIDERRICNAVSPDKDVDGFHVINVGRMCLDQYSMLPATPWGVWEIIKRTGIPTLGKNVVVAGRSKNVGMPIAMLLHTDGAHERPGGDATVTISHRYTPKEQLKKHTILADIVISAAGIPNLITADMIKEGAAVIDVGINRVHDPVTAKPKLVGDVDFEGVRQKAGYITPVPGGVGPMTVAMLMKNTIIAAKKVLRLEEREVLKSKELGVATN
Experiment: MTHFD2 Activity Assay (dehydrogenase activity, diaphorase/resazurin coupled fluorescence)
Type: biochemical
Details: inhibitory activity (IC50 and/or binding constant); 0.2 nM MTHFD2, 11 concentrations
Summary of the method: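 His6-tagged MTHFD2 (res. 36-350), E. coli-expressed, at 0.2 nM preincubated with compound 15 min in Hepes pH 8.0/MgCl2/KH2PO4 buffer; 70 μM CH2-THF, 1 mM NAD+ added with resazurin/diaphorase, 30 min, EDTA stop. Resorufin fluorescence (ex 525/em 598); IC50 from 11-point 4-parameter fit.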

| IC50 [nM] | SMILES |
| --- | --- |
| 10 to 1000 | Cn1c(Cn2c(=O)c3c(nc(N4CCC(O)CC4)n3C)n(C)c2=O)cc2cc(Cl)ccc21 [Example 196, 1-((5-chloro-1-methyl-1H-indol-2-yl)methyl)-8-(4-hydroxypiperidin-1-yl)-3,7-dimethyl-1H-purine-2,6(3H,7H)-dione] |
| 10 to 1000 | Cn1c(Nc2ccnc([C@H]3C[C@@H]3CO)c2)nc2c1c(=O)n(Cc1ccc(Cl)c(Cl)c1)c(=O)n2C (racemic) [Example 284, (±)-trans-1-(3,4-dichlorobenzyl)-8-((2-(2-(hydroxymethyl)cyclopropyl)pyridin-4-yl)amino)-3,7-dimethyl-1H-purine-2,6(3H,7H)-dione] |
| 10 to 1000 | Cn1c(C(N)C2CCOCC2)nc2c1c(=O)n(Cc1[nH]c3cccc(Cl)c3c1Cl)c(=O)n2C (stereo not shown) [Example 455, 8-[amino(tetrahydropyran-4-yl)methyl]-1-[(3,4-dichloro-1H-indol-2-yl)methyl]-3,7-dimethyl-purine-2,6-dione] |
| 10 to 1000 | COc1nc2c(c(=O)n(Cc3cc4cccc(Cl)c4[nH]3)c(=O)n2C)n1C [Example 421, 1-[(7-chloro-1H-indol-2-yl)methyl]-8-methoxy-3,7-dimethyl-purine-2,6-dione] |
| 1000 to 5000 | Cn1c(N[C@@H]2CCNC2)nc2c1c(=O)n(Cc1ccc(Cl)c(Cl)c1)c(=O)n2C [Example 60, 1-[(3,4-dichlorophenyl)methyl]-3,7-dimethyl-8-{[(3R)-pyrrolidin-3-yl]amino}-2,3,6,7-tetrahydro-1H-purine-2,6-dione] |
| 10 to 1000 | C[C@H](CCO)Nc1nc2c(c(=O)n(Cc3ccc(Cl)c(Cl)c3)c(=O)n2C)n1C [Example 27, 1-[(3,4-dichlorophenyl)methyl]-8-{[(2R)-4-hydroxybutan-2-yl]amino}-3,7-dimethyl-2,3,6,7-tetrahydro-1H-purine-2,6-dione] |
| 1000 to 5000 | Cn1c(N[C@H]2CCCNC2)nc2c1c(=O)n(Cc1ccc(Cl)c(Cl)c1)c(=O)n2C [Example 68, 1-[(3,4-dichlorophenyl)methyl]-3,7-dimethyl-8-{[(3S)-piperidin-3-yl]amino}-2,3,6,7-tetrahydro-1H-purine-2,6-dione] |
| 1000 to 5000 | CN(C)CCc1nc2c(c(=O)n(Cc3ccc(Cl)c(Cl)c3)c(=O)n2C)n1C [Example 157, 1-(3,4-dichlorobenzyl)-8-(2-(dimethylamino)ethyl)-3,7-dimethyl-1H-purine-2,6(3H,7H)-dione] |
| 10 to 1000 | Cn1c(Nc2ccncn2)nc2c1c(=O)n(Cc1cc3cc(Cl)ccc3[nH]1)c(=O)n2C [Example 208, 1-((5-chloro-1H-indol-2-yl)methyl)-3,7-dimethyl-8-(pyrimidin-4-ylamino)-1H-purine-2,6(3H,7H)-dione] |
| 10 to 1000 | Cn1c(N[C@@H]2CC[C@H](CO)C2)nc2c1c(=O)n(Cc1ccc(Cl)c(Cl)c1)c(=O)n2C (stereo in doubt) [Example 275, 1-(3,4-dichlorobenzyl)-8-((1R,3S)-3-(hydroxymethyl)cyclopentylamino)-3,7-dimethyl-1H-purine-2,6(3H,7H)-dione] |
| 10 to 1000 | Cn1c(Nc2ccnc(CNC(=O)CN)n2)nc2c1c(=O)n(Cc1cc3c(Cl)cccc3[nH]1)c(=O)n2C [Example 440, 2-amino-N-((4-(1((4-chloro-1H-indol-2-yl)methyl)-3,7-dimethyl-2,6-dioxo-2,3,6,7-tetrahydro-1H-purin-8-ylamino)pyrimidin-2-yl)methyl)acetamide] |
| > 10000 | Cn1c(N[C@@H]2CC[C@@H](O)C2)nc2c(=O)n(Cc3ccc(Cl)c(Cl)c3)c(=O)n(C)c21 [Example 262, 1-(3,4-dichlorobenzyl)-8-((1R,3R)-3-hydroxycyclopentylamino)-3,9-dimethyl-1H-purine-2,6(3H,9H)-dione] |
| 10 to 1000 | Cc1ccc2cc(Cn3c(=O)c4c(nc(Nc5ccncc5)n4C)n(C)c3=O)[nH]c2c1 [Example 326, 3,7-dimethyl-1-((6-methyl-1H-indol-2-yl)methyl)-8-(pyridin-4-ylamino)-1H-purine-2,6(3H,7H)-dione] |
| 10 to 1000 | Cn1c(Nc2ccnc(C3CC(CO)C3)c2)nc2c1c(=O)n(Cc1ccc(Cl)c(Cl)c1)c(=O)n2C (stereo not shown) [Example 320, 1-(3,4-dichlorobenzyl)-8-(2-(3-(hydroxymethyl)cyclobutyl)pyridin-4-ylamino)-3,7-dimethyl-1H-purine-2,6(3H,7H)-dione] |
| 10 to 1000 | Cn1c(Cn2c(=O)c3c(nc(N4CC(O)C4)n3C)n(C)c2=O)cc2cc(Cl)ccc21 [Example 197, 1-((5-chloro-1-methyl-1H-indol-2-yl)methyl)-8-(3-hydroxyazetidin-1-yl)-3,7-dimethyl-1H-purine-2,6(3H,7H)-dione] |
| 1000 to 5000 | CC(=O)Nc1nc2c(c(=O)n(Cc3ccc(Cl)c(Cl)c3)c(=O)n2C)n1C [Example 274, N-[1-[(3,4-dichlorophenyl)methyl]-3,7-dimethyl-2,6-dioxo-purin-8-yl]acetamide] |

| IC50 [nM] | SMILES |
| --- | --- |
| 1000 to 5000 | C[C@H](CCO)Nc1nc2c(c(=O)n(Cc3ccc(Cl)cc3)c(=O)n2C)n1C [Example 26, 1-[(4-chlorophenyl)methyl]-8-{[(2R)-4-hydroxybutan-2-yl]amino}-3,7-dimethyl-2,3,6,7-tetrahydro-1H-purine-2,6-dione] |
| > 10000 | COc1cc(Cn2c(=O)c3c(ncn3C)n(C)c2=O)ccc1Cl [Example 249, 1-(4-chloro-3-methoxybenzyl)-3,7-dimethyl-1H-purine-2,6(3H,7H)-dione] |
| 5000 to 10000 | Cn1c(N)nc2c1c(=O)n(Cc1cc3ccccc3[nH]1)c(=O)n2C [Example 231, 1-((1H-indol-2-yl)methyl)-8-amino-3,7-dimethyl-1H-purine-2,6(3H,7H)-dione] |
| 10 to 1000 | Cn1c(Nc2ccncc2)nc2c1c(=O)n(Cc1cc3c(C4CC4)cccc3[nH]1)c(=O)n2C [Example 401, 1-((4-cyclopropyl-1H-indol-2-yl)methyl)-3,7-dimethyl-8-(pyridin-4-ylamino)-1H-purine-2,6(3H,7H)-dione] |
| 5000 to 10000 | Cn1c(=O)n(Cc2ccc(Cl)c(Cl)c2)c(=O)c2c1nc(NC1CCCC(C(=O)O)C1)n2CCC(=O)O (stereo not shown) [Example 341, 3-(7-(2-carboxyethyl)-1-(3,4-dichlorobenzyl)-3-methyl-2,6-dioxo-2,3,6,7-tetrahydro-1H-purin-8-ylamino)cyclohexanecarboxylic acid] |
| 10 to 1000 | Cn1c(N[C@H]2CCC[C@@H]2O)nc2c1c(=O)n(Cc1cc3c(Cl)cccc3[nH]1)c(=O)n2C [Example 403, 1-((4-chloro-1H-indol-2-yl)methyl)-8-((1S,2S)-2-hydroxycyclopentylamino)-3,7-dimethyl-1H-purine-2,6(3H,7H)-dione] |
| 1000 to 5000 | Cn1c(N[C@H]2CC[C@@H](N)CC2)nc2c1c(=O)n(Cc1ccc(Cl)c(Cl)c1)c(=O)n2C [Example 39, (±)-1-[(3,4-dichlorophenyl)methyl]-3,7-dimethyl-8-{[(cis)-4-aminocyclohexyl]amino}-2,3,6,7-tetrahydro-1H-purine-2,6-dione] |
| 10 to 1000 | Cn1c(NC2CCCC(C(=O)O)C2)nc2c1c(=O)n(Cc1cc3c(Cl)cccc3[nH]1)c(=O)n2C (stereo not shown) [Example 308, 3-(1-((4-chloro-1H-indol-2-yl)methyl)-3,7-dimethyl-2,6-dioxo-2,3,6,7-tetrahydro-1H-purin-8-ylamino)cyclohexanecarboxylic acid] |
| 10 to 1000 | Cn1c(N[C@@H]2CCCOC2)nc2c1c(=O)n(Cc1ccc(Cl)c(Cl)c1)c(=O)n2C [Example 47, 1-[(3,4-dichlorophenyl)methyl]-3,7-dimethyl-8-{[(3R)-oxan-3-yl]amino}-2,3,6,7-tetrahydro-1H-purine-2,6-dione] |
| 10 to 1000 | Cc1ccc2c(c1)cc(Cn1c(=O)c3c(nc(N[C@H]4CC[C@@H](O)C4)n3C)n(C)c1=O)n2C [Example 185, 1-((1,5-dimethyl-1H-indol-2-yl)methyl)-8-((1S,3R)-3-hydroxycyclopentylamino)-3,7-dimethyl-1H-purine-2,6(3H,7H)-dione] |
| 10 to 1000 | Cn1c(C2CCCNC2)nc2c1c(=O)n(Cc1cc3c(Cl)cccc3[nH]1)c(=O)n2C (stereo not shown) [Example 391, 1-[(4-chloro-1H-indol-2-yl)methyl]-3,7-dimethyl-8-(3-piperidyl)purine-2,6-dione] |
| > 10000 | COc1ccc2[nH]c(Cn3c(=O)c4c(nc(N)n4C)n(C)c3=O)cc2c1 [Example 243, 8-amino-1-((5-methoxy-1H-indol-2-yl)methyl)-3,7-dimethyl-1H-purine-2,6(3H,7H)-dione] |
| 10 to 1000 | Cn1c(Nc2cnccn2)nc2c1c(=O)n(Cc1cc3c(Cl)cccc3[nH]1)c(=O)n2C [Example 354, 1-((4-chloro-1H-indol-2-yl)methyl)-3,7-dimethyl-8-(pyrazin-2-ylamino)-1H-purine-2,6(3H,7H)-dione] |
| 10 to 1000 | Cn1c(N[C@H]2C[C@@H](O)C2)nc2c1c(=O)n(Cc1ccc(Cl)c(Cl)c1)c(=O)n2C [Example 66, 1-[(3,4-dichlorophenyl)methyl]-3,7-dimethyl-8-{[(cis)-3-hydroxycyclobutyl]amino}-2,3,6,7-tetrahydro-1H-purine-2,6-dione] |
| 10 to 1000 | C[C@H](N)c1nc2c(c(=O)n(Cc3cc4c(Cl)cccc4[nH]3)c(=O)n2C)n1C (single isomer, unassigned) [Example 435, (S)-8-(1-aminoethyl)-1-((4-chloro-1H-indol-2-yl)methyl)-3,7-dimethyl-1H-purine-2,6(3H,7H)-dione or (R)-8-(1-aminoethyl)-1-((4-chloro-1H-indol-2-yl)methyl)-3,7-dimethyl-1H-purine-2,6(3H,7H)-dione] |
